# Laboratory results published in patent US20250169496A1, “USE OF 2-AMINO-3-HYDROXY-3-METHYLBUTYRIC ACID AND/OR 2-AMINO-3-(4-HYDROXYPHENYL) BUTYRIC ACID” (NANJING TIANNONG BIOTECHNOLOGY CO., LTD., priority 2021, published 2025).
# Experiments:
# [1] = tested on: Pseudomonas syringae PstDC3000; assay: Induced resistance of Arabidopsis to infection of Pseudomonas syringae; format: in vivo; details: for Disease index: Arabidopsis 3 d after PstDC3000 inoculation; for CFU/mg (number of bacteria per mg of leaves): Arabidopsis leaves 3 d after PstDC3000 inoculation; for Decrease of disease index / Decrease of number of bacteria per mg of leaves: compared to blank control
# Protocol: Take 2-amino-3-hydroxy-3-methylbutyric acid, dissolve it in sterile water, dilute the solution with sterile water by gradient into 100 nM, 1,000 nM and 10,000 nM solutions, set a blank control, and meanwhile add 0.02% Tween 20 as a surfactant. Spread Pseudomonas syringaePstDC3000 on an LB plate, and culture it at 28° C. for 48h; pick a monoclonal colony, inoculate it in a 50 mL centrifuge tube containing 2 mL of medium, culture it on a shaker at 28° C., 250 rpm, monitor changes of OD600 of the bacterial solution once every 1-2 h, and stop bacteria culturing before OD600 reaches 0.8; transfer 1 mL of the bacterial solution to a sterile 1.5 mL centrifuge tube, centrifuge it at 8000 rpm for 2 min, and collect the precipitate; remove the supernatant, wash the precipitate with 10 mM magnesium chloride for three times and centrifuge, lastly re-suspend PstDC3000 in the 10 mM magnesium chloride until its OD600 reaches 0.001, and keep it for future use. Soake Arabidopsis seeds in 75% alcohol for 3 min, then wash them with sterile water for 4 times, inoculate it in culture dishes filled with ½ MS medium, 12 seeds per dish, vernalize the ½ MS culture dishes containing seeds at 4° C. for 3 d to break dormancy, then put them in a 22° C. culture room with luminous intensity of 100μE m^−2s-^1(16 hillumination/8 h darkness), slowly pour the above 2-amino-3-hydroxy-3-methylbutyric acid at different concentrations into the culture dishes until the entire Arabidopsis seedlings are submerged after the seedlings have grown for 2 weeks, maintain this state for 2-3 minutes, and then pour the treatment solution out of the culture dishes, treat it once every 24 h, twice in total, inoculate PstDC3000 suspension (OD600=0.01) to Arabidopsis leaves by the same submerging method 24 h after the second treatment, seal the culture dishes with medical breathable adhesive after the inoculation, put them in the culture room for continued culturing. 3 d after, determine the number of bacteria after different treatments, observe the morbidity of Arabidopsis, and calculate the disease index by the method same as the disease index calculation formula in Embodiment 2.
# Grading standard of diseases caused by PstDC3000(with leaf as a unit): • Level 0: No disease spot on the leaf surface; • Level 1: The area of the disease spots accounts for 0%-10% of the whole leaf area; • Level 2: The area of the disease spots accounts for 10%-25% of the whole leaf area; • Level 3: The area of the disease spots accounts for 25%-50% of the whole leaf area; • Level 4: The area of the disease spots accounts for 50%-75% of the whole leaf area; • Level 5: The area of the disease spots accounts for […] of the whole leaf area.
# [2] = tested on: ryegrass under high-temperature stress; assay: Ryegrass under high-temperature stress; format: in vivo; details: for PIABS (photosynthetic performance index): ryegrass after 45° C. for 12 h; for Heat damage index: 45° C. 12 h, recovered 7 d
# Protocol: Set 4 groups for each concentration and meanwhile set a room-temperature blank control. Weigh 0.8 g of ryegrass seeds per bowl, sow them in bowls with a diameter of 8.5 cm, and grow in a greenhouse at 25° C., RH 60%-70% and luminous intensity of 200 μmol m^−2s^−1(12 h illumination/12 h darkness). Start treatment after ryegrass has grown for 7 dby the method of spraying a 2-amino-3-(4-hydroxyphenyl) butyric acid solution on the leaf surface twice in 24 h.24 h after the second treatment, transfer them to an illumination incubator of 45° C. for high-temperature stress treatment, and after 12 h, conduct dark treatment at room temperature for 30 min, then determine the chlorophyll fluorescence of […] leaves by plant efficiency Handy-PEA, then transfer the plants to a 25° C. greenhouse and recover them for 7 d, observe and calculate the damage condition of the plants and calculate the heat damage levels. The heat damage grading standard is shown in Table 9 and the heat damage calculation formula is as follows.
# [3] = tested on: Arabidopsis under high-temperature stress; assay: Arabidopsis under high-temperature stress; format: in vivo; details: for PIABS (photosynthetic performance index): Arabidopsis after 45° C. for 12 h; for Heat damage index: 45° C. 12 h, recovered 7 d
# Protocol: Take 2-amino-3-hydroxy-3-methylbutyric acid, dissolve it with distilled water, then dilute the solution with distilled water by gradient into 10 nM, 100 nM, 1,000 nM and 10,000 nM solutions, set a blank control, and meanwhile add 0.02% Tween 20 as a surfactant. Set 4 groups for each concentration and meanwhile set a room-temperature blank control. Sow about 50 Arabidopsis seeds in each bowl with a diameter of 8.5 cm, and grow in a greenhouse at 25° C., RH 60%-70% and luminous intensity of 200 μmol m^−2s^−1(16 h illumination/8 h darkness). Start treatment in 21 d of the Arabidopsis seedling stage by the method of spraying a 2-amino-3-hydroxy-3-methylbutyric acid solution on the leaf surface twice in 24 h. 24 h after the second treatment, transfer them to an illumination incubator of 45° C. for high-temperature stress treatment, and after 12 h, conduct dark treatment at room temperature for 30 min, then determine the chlorophyll fluorescence of Arabidopsis leaves by plant efficiency Handy-PEA, then transfer the plants to a 25° C. greenhouse and recover them for 7 d, observe and calculate the damage condition of the plants and calculate the heat damage levels. The heat damage grading standard is shown in Table 9 and the heat damage index calculation formula is as follows.
# [4] = tested on: rat brain glial cells; details: concentration of 10μgmL^−1; cited from earlier work
# [5] = 10,000 nM (so in the source), ryegrass, high-temperature stress, vs 0 nM
# [6] = 10,000 nM, Arabidopsis, high-temperature stress, vs 0 nM
smiles,measurement,setting,value
CC(c1ccc(O)cc1)C(N)C(=O)O (stereo not drawn) [2-amino-3-(4-hydroxyphenyl) butyric acid],Disease index,[1]; 100 nM,40.06 ± 0.98 b
same,CFU/mg (number of bacteria per mg of leaves),[1]; 100 nM,4.43 × 10^5 CFU/mg
same,Decrease of disease index,[1]; 100 nM,51.11%
same,Decrease of number of bacteria per mg of leaves,[1]; 100 nM,86.20%
same,Disease index,"[1]; 1,000 nM",36.81 ± 0.28 c
same,CFU/mg (number of bacteria per mg of leaves),"[1]; 1,000 nM",3.04 × 10^5 CFU/mg
same,Decrease of disease index,"[1]; 1,000 nM",55.07%
same,Decrease of number of bacteria per mg of leaves,"[1]; 1,000 nM",90.53%
same,Decrease of disease index,"[1]; 10,000 nM",66.84%
same,Decrease of number of bacteria per mg of leaves,"[1]; 10,000 nM",91.37%
same,PIABS (photosynthetic performance index),[2]; 1 nM,0.78 ± 0.23bc
same,Heat damage index,"[2]; 1 nM, ryegrass",81%
same,PIABS (photosynthetic performance index),[2]; 10 nM,0.95 ± 0.41bc
same,Heat damage index,"[2]; 10 nM, ryegrass",66.67%
same,PIABS (photosynthetic performance index),[2]; 100 nM,1.50 ± 0.54b
same,Heat damage index,"[2]; 100 nM, ryegrass",55%
same,PIABS (photosynthetic performance index),"[2]; 1,000 nM",2.61 ± 1.05ab
same,Heat damage index,"[2]; 1,000 nM, ryegrass",35%
same,Decrease of heat damage index,[2]; [5],55%
same,Increase of PIABS,[2]; [5],366%
CC(C)(O)C(N)C(=O)O (stereo not drawn) [2-amino-3-hydroxy-3-methylbutyric acid],PIABS (photosynthetic performance index),[3]; 10 nM,10.60 ± 0.32 c
same,Heat damage index,"[3]; 10 nM, Arabidopsis",60%
same,PIABS (photosynthetic performance index),[3]; 100 nM,11.27 ± 0.89 c
same,Heat damage index,"[3]; 100 nM, Arabidopsis",45%
same,PIABS (photosynthetic performance index),"[3]; 1,000 nM",13.61 ± 0.38 b
same,Heat damage index,"[3]; 1,000 nM, Arabidopsis",20%
same,PIABS (photosynthetic performance index),"[3]; 10,000 nM",15.60 ± 0.78 ab
same,Heat damage index,"[3]; 10,000 nM, Arabidopsis",15%
same,Decrease of heat damage index,[3]; [6],65%
same,Increase of PIABS,[3]; [6],106%
same,Disease index,[1]; 100 nM,40.90 ± 2.41 b
same,CFU/mg (number of bacteria per mg of leaves),[1]; 100 nM,9.46 × 10^5 CFU/mg
same,Decrease of disease index,[1]; 100 nM,43.22%
same,Decrease of number of bacteria per mg of leaves,[1]; 100 nM,70.34%
same,Disease index,"[1]; 1,000 nM",38.90 ± 1.96 b
same,CFU/mg (number of bacteria per mg of leaves),"[1]; 1,000 nM",7.11 × 10^5 CFU/mg
same,Decrease of disease index,"[1]; 1,000 nM",45.60%
same,Decrease of number of bacteria per mg of leaves,"[1]; 1,000 nM",77.71%
same,CFU/mg (number of bacteria per mg of leaves),"[1]; 10,000 nM",3.81×10^5 CFU/mg
same,Decrease of disease index,"[1]; 10,000 nM",58.07%
same,Decrease of number of bacteria per mg of leaves,"[1]; 10,000 nM",88.06%
same,Toxicity to rat brain glial cells,[4],weakly toxic
